# Source: patent publication US20130005811A1, “ANTIMICROBIAL TREATMENT FOR SEEDS AND SPROUTS” (priority 2010, published 2013)
# Marks after values point to notes of the source that are not given here.
# Key:
# S. typhimurium DT 104 = assay: Inactivation of S. typhimurium DT 104 on alfalfa seeds inoculated with 10^8 CFU/g; type: cell-based, Salmonella typhimurium DT104
# Method: (§1) Five isolates of Escherichia coli O157:H7, including strain 932 (human isolate), E009 (beef isolate), E0018 (cattle isolate), E0122 (cattle isolate), E0139 (deer jerky isolate); and five isolates of Salmonella typhimurium DT104, including strain H2662 (cattle isolate), 11942A (cattle isolate), 13068A (cattle isolate), 152N17-1 (dairy isolate) and H3279 (human isolate) were used. Nalidixic acid-resistant (50 μg/ml) E. coli O157:H7 were used to facilitate enumeration. Each E. coli O157:H7 and Salmonella strain was grown in tryptic soy broth (TSB, Beckon Dickinson, Sparks, Md.) at 37° C. for 18 hr. Approximately equal cell numbers of each of the five strains were combined and used as a 5-strain mixture with cell numbers being adjusted by spectrophotometric (Spectronic Instruments, Rochester, N.Y.) determination as described in Zhao et al., (2009) J. Food Prot. 72: 928-936, incorporated herein by reference in its entirety. Bacterial cell numbers were confirmed by plating 0.1 ml of serial dilutions (1:10) in 0.1% peptone on tryptic soy agar (TSA, Beckon Dickinson) and Sorbitol MacConkey agar (SMA, Oxoid, Hampshire, UK) for E. coli O157:H7, and TSA and XLD agar (Beckon Dickinson) for Salmonella and incubating all plates at 37° C. for 24 hr, after which colonies were counted.
# (§2) Levulinic acid (0.5%) and 0.05% sodium dodecyl sulfate (SDS) obtained from Sigma-Aldrich (St. Louis, Mo.) were tested in combination at 21±2° C. for their antimicrobial activity to E. coli O157:H7 and S. typhimurium on alfalfa seeds as a wash treatment. Calcium hypochlorite (Arch Chemicals, Smyrna, Ga.) at 20,000 μg/ml (ppm) was used as the positive control, and deionized water was used as the negative control.
# (§3) Before each trial, 25 ml of sterile tap water and 25 g of alfalfa seeds were added to a WHIRL-PAK® bag (Nasco, Fort Atkinson, Wis.) and pummeled in a stomacher blender at 150 rpm for 1 min. Duplicate 0.1 ml portions of the contents were plated on SMA, XLD, and TSA plates to detect E. coli O157:H7 and Salmonella, and enumerate aerobic bacteria counts according to the protocols described below. Only E. coli O157:H7-negative and Salmonella-negative alfalfa seeds were used. Dry seeds (50 g) were individually placed in a sterilized glass beaker (1 L) and 5 ml of a mixture of E. coli O157:H7 or S. typhimurium DT 104 (high inocula at 10^8-10^9 CFU/ml and low inocula at 10^3-10^4 CFU/ml) was inoculated on the surface of the seeds in each glass beaker under a laminar flow hood. A sterile plastic spoon was used to mix for 2 min the seeds with bacterial suspension. The glass beakers were held in a laminar flow hood for 1 hr, 4 hr, 24 hr, 48 hr, and 72 hr with intermittent mixing by plastic spoon before use for chemical treatment.
# (§4) Inactivation of E. coli O157:H7 and Salmonella on Alfalfa Seeds: Inoculated, dried alfalfa seeds (50 g samples) were placed in a 1000 ml glass beaker containing 200 ml of treatment solution and agitated by a magnetic stir bar at 150 ppm at 21° C. for 0, 1, 2, 5, 10, 20, 30, and 60 min. Following treatment, 25 g of seeds was placed in a stomacher bag containing 25 ml 0.1M phosphate buffer, pH 7.2 (PBS) for levulinic acid plus SDS-treated seeds or neutralizing buffer (50×) for calcium hypochlorite-treated seeds and pummeled for 1 min. at 150 rpm in a stomacher blender (Seward, Ltd., Worthing, England). The suspension was serially (1:10) diluted in 0.1% peptone water and 0.1 ml of each dilution was surface-plated in duplicate onto TSA and Sorbitol MacConkey agar containing 50 μg nalidixic acid/ml (TSA-NA and SMA-NA) for E. coli O157:H7, and on TSA and XLD containing ampicillin (32 μg/ml), tetracycline (16 μg/ml) and streptomycin (64 μg/ml) (TSA+ and XLD+) for S. typhimurium DT 104. All plates were incubated at 37° C. for 48 hr.
# E. coli O157:H7 = assay: Inactivation of E. coli O157:H7 on alfalfa seeds inoculated with 10^8 CFU/g; type: cell-based, Escherichia coli O157:H7
# Method: as §1, §2, §3, §4
# [1] = dried for 4 hr, treated for 0 min (actual time 0 delayed by 20 to 30 seconds)
# [2] = dried for 4 hr, treated for 1 min
# [3] = dried for 4 hr, treated for 2 min
# [4] = dried for 4 hr, treated for 5 min
# [5] = dried for 4 hr, treated for 10 min
# [6] = dried for 4 hr, treated for 20 min
# [7] = dried for 4 hr, treated for 30 min
# [8] = dried for 4 hr, treated for 60 min
# [9] = dried for 24 hr, treated for 0 min
# [10] = dried for 24 hr, treated for 1 min
# [11] = dried for 24 hr, treated for 2 min
# [12] = dried for 24 hr, treated for 5 min
# [13] = dried for 24 hr, treated for 10 min
# [14] = dried for 24 hr, treated for 20 min
# [15] = dried for 24 hr, treated for 30 min
# [16] = dried for 24 hr, treated for 60 min
# [17] = dried for 48 hr, treated for 0 min
# [18] = dried for 48 hr, treated for 1 min
# [19] = dried for 48 hr, treated for 2 min
# [20] = dried for 48 hr, treated for 5 min
# [21] = dried for 48 hr, treated for 10 min
# [22] = dried for 48 hr, treated for 20 min
# [23] = dried for 48 hr, treated for 30 min
# [24] = dried for 48 hr, treated for 60 min
# [25] = dried for 72 hr, treated for 0 min
# [26] = dried for 72 hr, treated for 1 min
# [27] = dried for 72 hr, treated for 2 min
# [28] = dried for 72 hr, treated for 5 min
# [29] = dried for 72 hr, treated for 10 min
# [30] = dried for 72 hr, treated for 20 min
# [31] = dried for 72 hr, treated for 30 min
# [32] = dried for 72 hr, treated for 60 min
smiles,measurement,setting,value
"[Ca+2].[O-]Cl.[O-]Cl [20,000 ppm, Ca(OCl)2, pH 11.4, Calcium hypochlorite]",S. typhimurium DT 104 counts in seeds,S. typhimurium DT 104; [1],"+^b (below the minimum detection level by direct plating (<0.7 log CFU/ml), but positive by enrichment culture.)"
same,S. typhimurium DT 104 counts in seeds,S. typhimurium DT 104; [2],−^c
same,S. typhimurium DT 104 counts in seeds,S. typhimurium DT 104; [3],−
same,S. typhimurium DT 104 counts in seeds,S. typhimurium DT 104; [4],−
same,S. typhimurium DT 104 counts in seeds,S. typhimurium DT 104; [5],−
same,S. typhimurium DT 104 counts in seeds,S. typhimurium DT 104; [6],−
same,S. typhimurium DT 104 counts in seeds,S. typhimurium DT 104; [7],−
same,S. typhimurium DT 104 counts in seeds,S. typhimurium DT 104; [8],−
same,S. typhimurium DT 104 counts in seeds,S. typhimurium DT 104; [9],"+ (below the minimum detection level by direct plating (<0.7 log CFU/ml), but positive by enrichment culture.)"
same,S. typhimurium DT 104 counts in seeds,S. typhimurium DT 104; [10],"+ (below the minimum detection level by direct plating (<0.7 log CFU/ml), but positive by enrichment culture.)"
same,S. typhimurium DT 104 counts in seeds,S. typhimurium DT 104; [11],−
same,S. typhimurium DT 104 counts in seeds,S. typhimurium DT 104; [12],−
same,S. typhimurium DT 104 counts in seeds,S. typhimurium DT 104; [13],−
same,S. typhimurium DT 104 counts in seeds,S. typhimurium DT 104; [14],−
same,S. typhimurium DT 104 counts in seeds,S. typhimurium DT 104; [15],−
same,S. typhimurium DT 104 counts in seeds,S. typhimurium DT 104; [16],−
same,S. typhimurium DT 104 counts in seeds,S. typhimurium DT 104; [17],"+ (below the minimum detection level by direct plating (<0.7 log CFU/ml), but positive by enrichment culture.)"
same,S. typhimurium DT 104 counts in seeds,S. typhimurium DT 104; [18],"+ (below the minimum detection level by direct plating (<0.7 log CFU/ml), but positive by enrichment culture.)"
same,S. typhimurium DT 104 counts in seeds,S. typhimurium DT 104; [19],−
same,S. typhimurium DT 104 counts in seeds,S. typhimurium DT 104; [20],−
same,S. typhimurium DT 104 counts in seeds,S. typhimurium DT 104; [21],"+ (below the minimum detection level by direct plating (<0.7 log CFU/ml), but positive by enrichment culture.)"
same,S. typhimurium DT 104 counts in seeds,S. typhimurium DT 104; [22],−
same,S. typhimurium DT 104 counts in seeds,S. typhimurium DT 104; [23],−
same,S. typhimurium DT 104 counts in seeds,S. typhimurium DT 104; [24],−
same,S. typhimurium DT 104 counts in seeds,S. typhimurium DT 104; [25],−
same,S. typhimurium DT 104 counts in seeds,S. typhimurium DT 104; [26],−
same,S. typhimurium DT 104 counts in seeds,S. typhimurium DT 104; [27],−
same,S. typhimurium DT 104 counts in seeds,S. typhimurium DT 104; [28],−
same,S. typhimurium DT 104 counts in seeds,S. typhimurium DT 104; [29],−
same,S. typhimurium DT 104 counts in seeds,S. typhimurium DT 104; [30],"+ (below the minimum detection level by direct plating (<0.7 log CFU/ml), but positive by enrichment culture.)"
same,S. typhimurium DT 104 counts in seeds,S. typhimurium DT 104; [31],"+ (below the minimum detection level by direct plating (<0.7 log CFU/ml), but positive by enrichment culture.)"
same,S. typhimurium DT 104 counts in seeds,S. typhimurium DT 104; [32],−
same,Salmonella detection after treatment,"S. typhimurium DT 104; seeds dried for 4 hr, after 5 min of treatment",no detectable Salmonella
same,Salmonella detection after treatment,"S. typhimurium DT 104; seeds dried for 24 hr, 48 hr, or 72 hr, treated for 5 min",levels only detectable by selective enrichment culture
same,E. coli O157:H7 counts on seeds,E. coli O157:H7; [1],"+^b (below the minimum detection level by direct plating (<0.7 log CFU/ml), but positive by enrichment culture)"
same,E. coli O157:H7 counts on seeds,E. coli O157:H7; [2],"+ (below the minimum detection level by direct plating (<0.7 log CFU/ml), but positive by enrichment culture)"
same,E. coli O157:H7 counts on seeds,E. coli O157:H7; [3],−^c
same,E. coli O157:H7 counts on seeds,E. coli O157:H7; [4],"+ (below the minimum detection level by direct plating (<0.7 log CFU/ml), but positive by enrichment culture)"
same,E. coli O157:H7 counts on seeds,E. coli O157:H7; [5],1.7 CFU/g
same,E. coli O157:H7 counts on seeds,E. coli O157:H7; [6],2.0 CFU/g
same,E. coli O157:H7 counts on seeds,E. coli O157:H7; [7],1.7 CFU/g
same,E. coli O157:H7 counts on seeds,E. coli O157:H7; [8],"+ (below the minimum detection level by direct plating (<0.7 log CFU/ml), but positive by enrichment culture)"
same,E. coli O157:H7 counts on seeds,E. coli O157:H7; [9],"+ (below the minimum detection level by direct plating (<0.7 log CFU/ml), but positive by enrichment culture)"
same,E. coli O157:H7 counts on seeds,E. coli O157:H7; [10],−
same,E. coli O157:H7 counts on seeds,E. coli O157:H7; [11],−
same,E. coli O157:H7 counts on seeds,E. coli O157:H7; [12],−
same,E. coli O157:H7 counts on seeds,E. coli O157:H7; [13],"+ (below the minimum detection level by direct plating (<0.7 log CFU/ml), but positive by enrichment culture)"
same,E. coli O157:H7 counts on seeds,E. coli O157:H7; [14],−
same,E. coli O157:H7 counts on seeds,E. coli O157:H7; [15],−
same,E. coli O157:H7 counts on seeds,E. coli O157:H7; [16],"+ (below the minimum detection level by direct plating (<0.7 log CFU/ml), but positive by enrichment culture)"
same,E. coli O157:H7 counts on seeds,E. coli O157:H7; [17],"+ (below the minimum detection level by direct plating (<0.7 log CFU/ml), but positive by enrichment culture)"
same,E. coli O157:H7 counts on seeds,E. coli O157:H7; [18],−
same,E. coli O157:H7 counts on seeds,E. coli O157:H7; [19],"+ (below the minimum detection level by direct plating (<0.7 log CFU/ml), but positive by enrichment culture)"
same,E. coli O157:H7 counts on seeds,E. coli O157:H7; [20],−
same,E. coli O157:H7 counts on seeds,E. coli O157:H7; [21],−
same,E. coli O157:H7 counts on seeds,E. coli O157:H7; [22],−
same,E. coli O157:H7 counts on seeds,E. coli O157:H7; [23],−
same,E. coli O157:H7 counts on seeds,E. coli O157:H7; [24],−
same,E. coli O157:H7 counts on seeds,E. coli O157:H7; [25],"+ (below the minimum detection level by direct plating (<0.7 log CFU/ml), but positive by enrichment culture)"
same,E. coli O157:H7 counts on seeds,E. coli O157:H7; [26],"+ (below the minimum detection level by direct plating (<0.7 log CFU/ml), but positive by enrichment culture)"
same,E. coli O157:H7 counts on seeds,E. coli O157:H7; [27],"+ (below the minimum detection level by direct plating (<0.7 log CFU/ml), but positive by enrichment culture)"
same,E. coli O157:H7 counts on seeds,E. coli O157:H7; [28],−
same,E. coli O157:H7 counts on seeds,E. coli O157:H7; [29],"+ (below the minimum detection level by direct plating (<0.7 log CFU/ml), but positive by enrichment culture)"
same,E. coli O157:H7 counts on seeds,E. coli O157:H7; [30],"+ (below the minimum detection level by direct plating (<0.7 log CFU/ml), but positive by enrichment culture)"
same,E. coli O157:H7 counts on seeds,E. coli O157:H7; [31],−
same,E. coli O157:H7 counts on seeds,E. coli O157:H7; [32],−
same,Reduction of E. coli O157:H7 population,"E. coli O157:H7; seeds dried for 4 hr, treated for up to 60 min",greater than 6 log CFU/g
same,E. coli O157:H7 detection after treatment,"E. coli O157:H7; seeds dried for 24 hr, treated for 5 min",only detectable on seeds by selective enrichment culture
